The results in this text go back to patent publication US20230257383A1, “COMPOUND SERVING AS BTK INHIBITOR, PREPARATION METHOD THEREFOR, AND USE THEREOF” (CHENGDU HYPERWAY PHARMACEUTICALS CO., LTD., priority 2020, published 2023).

One data set concerns TMD8 cell proliferation. Briefly: In vitro cell proliferation inhibitory activity test (CTG), TMD8. To be noted: Homo sapiens, TMD8, 72 h, TMD8 cells. It is filed as cell-based. As to the method: (§1) Test Example 4: In Vitro Cell Proliferation Inhibitory Activity Test
(§2) Cells were cultured in 1640 medium, added with 10% inactivated FBS and 1% double antibiotics, and cultured at 37° C. and 5% CO2.
(§3) (1) Cells were routinely cultured until the cell density was 80%-90%, and the cells were harvested when their number reached the requirement.
(§4) (2) Cells were resuspended with corresponding culture medium, counted, and prepared into cell suspension at appropriate density.
(§5) (3) The cell suspension was added to a 96-well plate, 100 μL per well.
(§6) (4) Cells were cultured overnight in a 37° C., 5% CO2 incubator.
(§7) (1) The compounds to be tested were diluted with DMSO to make a stock solution with a final concentration of 20 mM for later use.
(§8) (2) The stock solution was diluted 10 times from 20 mM to 2 mM with DMSO, and then diluted 3 times from 2 mM to 9 concentrations.
(§9) (3) The blank control wells were cells plus 0.5% DMSO, as high-reading control wells.
(§10) (4) Wells with no cells and only medium were used as low-reading control wells.
(§11) 4: Cell treatment with compound
(§12) (1) 24 h after the cells were plated, the compounds acted alone, and 99 μL of growth medium was added to each well, followed by 1 μL of the compound prepared in step 3. The plate was shaken gently to mix uniformly, and then placed in a 37° C., 5% CO2 incubator.
(§13) (2) The cell plate was placed in an incubator for 72 h.
(§14) 5: Detection by CTG method
(§15) (1) The cell plate to be tested was placed at room temperature for 30 min, and 100 μL of medium was discarded from each well.
(§16) (2) 100 μL of CTG reagent (CelltiterGlo kit) was added to each well, placed on a fast shaker for 2 min, and stood at room temperature in the dark for 30 min.
(§17) (3) The chemiluminescent signal value was read with the Envision instrument.
(§18) IC50 was calculated by using GraphPad Prism 8 software. The IC50 (half inhibitory concentration) of the compound was derived using the following nonlinear fitting formula, and the results are shown in the following table:
(§19) Y=Bottom+(Top−Bottom)/(1+10^((Log IC50−X)×HillSlope))
(§20) X: log value of compound concentration, Y: inhibition rate (% inhibition)
(§21) Inhibition rate (% inhibition)=(reading of high-reading control well-reading of compound well)/(reading of high-reading control well-reading of low-reading control well)×100

The next data set has as its system DOHH2 cell proliferation. Briefly: In vitro cell proliferation inhibitory activity test (CTG), DOHH2. Type of data set: cell-based. The conditions noted are these: Homo sapiens, DOHH-2. How it is done: as §1, §2, §3, §4, §5, §6, §7, §8, §9, §10, §11, §12, §13, §14, §15, §16, §17, §18, §19, §20, §21
Data set [1] deals with TMD8 mouse subcutaneous xenograft tumor. The data set can be described thus: TMD8 pharmacodynamic model test. It is filed as in vivo. To be noted: same dose of 10 mg/kg, FIG. 1. How it is done: Test Example 7: TNMD8 Pharmacodynamic Model Test
Human diffuse large B-cell lymphoma TMD8 cells were monolayer-cultured in vitro in RPNHI1640 medium with […], 100 U/mL penicillin and 100 μg/mL streptomycin, in a 37° C., […] incubator. Routine digestion with trypsin-EDTA was performed twice a week for passaging. When the cell density was […] and the number reached the requirement, cells were harvested, counted and inoculated. 0.2 ml (1×10^7 cells) of TMVD8 cells (added with matrigel at a volume ratio of 1:1) were subcutaneously inoculated on the right back of each mouse. The mice were administered in groups when the average tumor volume reached about 137 mm^3. Tumor diameters were measured twice a week with vernier calipers. The tumor volume was calculated by the formula V=0.5 a×b^2, where a and b represent the long and short diameters of the tumor, respectively.

A short description of data set [2]: Liver microsome metabolic stability test (rat). Type of data set: in vitro ADME. The conditions noted are these: liver microsomes, read-out: CLint (μL/min/mg) Rat. How it is done:
(§22) 1: To the sample wells of T0, T5, T10, T20, T30, T60 and NCF60, 10 μL of the test or reference working solution and 80 μL of microsome working solution (hepatic microsome with a protein concentration of 0.5 mg/mL) were added, and to Blank60 well, only the microsome working solution was added. Then samples of the Blank60, T5, T10, T20, T30 and T60 other than TO and NCF60 were placed in a 37° C. water bath and pre-incubated for about 10 min.
(§23) 2: To the TO sample well, 300 μL of stop solution (containing 200 ng/mL tolbutamide and 200 ng/mL labetalol in acetonitrile solution) was added first, followed by 10 μL of NADPH regeneration system working solution.
(§24) 3: After the pre-incubation of Blank60, T5, T10, T20, T30 and T60 incubation plates, 10 μL of NADPH regeneration system working solution was added to each sample well to start the reaction, and 10 μL of 100 mM potassium phosphate buffer was added to the NCF60 sample well.
(§25) 4: After incubation for an appropriate time (such as 5, 10, 20, 30 and 60 min), to each test sample well and control well of the Blank60, T5, T10, T20, T30, T60 and NCF60 plates, 300 μL of stop solution was added to terminate the reaction.
(§26) 5: All sample plates were shaken to mix well and centrifuged at 4000 rpm for 20 min, and 100 μL of the supernatant of the test sample or control sample was taken and diluted with 300 μL of pure water for LC-MS/MS analysis.
(§27) 6: Data analysis: T1/2 and CLint(mic) (μL/min/mg) values were calculated according to the first-order elimination kinetics. The first-order elimination kinetics equation was: […]
On the technique in general: Microsomes from liver hold many membrane-bound enzymes, among them those of drug oxidation.

Data set [3] is described as follows: Liver microsome metabolic stability test (human). It is filed as in vitro ADME. To be noted: liver microsomes, read-out: CLint (μL/min/mg) Human. As to the method: as §22, §23, §24, §25, §26, §27
Data set [4] can be described thus: Pharmacokinetic test, oral, SD rats. To be noted: oral 10 mg/kg. Type of data set: in vivo. How it is done: Each test compound was administered orally (10 mg/kg, 3 rats in each group) to SD rats for pharmacokinetic study. […] Animals were fasted overnight before oral administration, and fed again after 4 h of administration. […] At each collection time point, 3 whole blood samples were collected at a the collection volume of about 0.2-0.3 mL. […] The collected plasma was stored at −20° C. before analysis. 20 μL of plasma sample was added into a 1.6 mL 96-well deep-well plate, added with 200 μL of working internal standard solution (the same volume of vehicle was added to the blank instead of internal standard), vortexed for 1 min, and centrifuged at 5800 rpm for 10 min. 100 μL of the supernatant was added to a 96-well injection plate for LC-MS/MS analysis.

The structures appear in SMILES notation.

Turning to `Nc1nccn2c(C34CCC(CO)(CC3)OC4)nc(-c3ccc(C(=O)Nc4cc(C(F)(F)F)ccn4)cc3)c12` [Example 118], the IC50 with TMD8 cell proliferation stood at 23.8 nM; in the data set with DOHH2 cell proliferation it was 250 nM. In data set [1], the “inhibitory effect against the tumor compared with ARQ-531 and ibrutinib” value was “significantly better inhibitory effect against the tumor than the clinical phase II drug ARQ-531 and the marketed drug ibrutinib”. Moreover, the results for the microsomal CLint in data set [2] and in data set [3] were 13.7 µL/min/mg and < 9.6 µL/min/mg, respectively. Besides, the “Cl” value in data set [4] amounted to 0.8 mL/min/kg.

What is called IC50 is the midpoint of a concentration-inhibition curve. A low value points to inhibition by little substance.
